Laboratory results taken from patent publication US10835542B2, “9-aminomethyl minocycline compounds and use thereof in treating community-acquired bacterial pneumonia (CABP)” (Paratek Pharmaceuticals, Inc., priority 2016, dated 2020).
Several values for one entry are separate records, joined by “and”; a condition that tells them apart may be missing. Equal values may be shown once.

How the values were obtained:
[1] = Safety assessments in the multiple iv dose BAL study, healthy adult subjects; assay type: in vivo, human; details: 5 doses of 100 mg iv
Method: Safety assessments included physical examinations, electrocardiograms (ECG), vital signs, standard clinical laboratory evaluations (blood chemistry, hematology), pregnancy testing, and adverse event (AE) and serious adverse event (SAE) monitoring.
Any subject who received at least 1 dose of test article was included in the evaluation for safety. Safety was assessed by the following measures: Physical exams; AEs and SAEs; Vital signs; Laboratory assessments (Blood samples for hematology, chemistry, and coagulation (prothrombin time only)); ECG; and Pregnancy assessments.
Subjects were analyzed according to the treatment actually received.

[2] = Safety and tolerability in the food effect study; assay type: in vivo, human
Method: Safety and tolerability was assessed by: Adverse events (AEs); vital sign measurements at multiple time-points within 24 hours post-dose in each treatment period; and clinical laboratory tests 24 hours post-dose in each treatment period.

[3] = system: Community-Acquired Bacterial Pneumonia (CABP); test: Phase 3 CABP study: Investigator's Assessment of Clinical Response at PTE; assay type: in vivo, human
[4] = system: Haemophilus parainfluenzae; test: Clinical success at PTE by baseline pathogen, microITT; assay type: in vivo, human; details: N1 = 18 (Compound 1), 17 (Moxifloxacin)
[5] = system: Moraxella catarrhalis; test: as above; assay type: in vivo, human; details: N1 = 4 (Compound 1), 1 (Moxifloxacin)
[6] = system: Chlamydophila pneumoniae; test: as above; assay type: in vivo, human; details: N1 = 28 (Compound 1), 28 (Moxifloxacin)
[7] = CE-PTE, PORT Risk Class II as randomized
[8] = CE-PTE, PORT Risk Class III as randomized
[9] = CE-PTE, PORT Risk Class III/IV as randomized
[10] = CE-PTE, PORT Risk Class IV as randomized
[11] = CE-PTE, actual PORT Risk Class II
[12] = CE-PTE, actual PORT Risk Class III
[13] = CE-PTE, actual PORT Risk Class III/IV
[14] = CE-PTE, actual PORT Risk Class IV
[15] = ITT, PORT Risk Class II as randomized
[16] = ITT, PORT Risk Class III as randomized
[17] = ITT, PORT Risk Class III/IV as randomized
[18] = ITT, PORT Risk Class IV as randomized
[19] = ITT, actual PORT Risk Class III
[20] = ITT, actual PORT Risk Class III/IV

SMILES: CN(C)c1cc(CNCC(C)(C)C)c(O)c2c1C[C@H]1C[C@H]3[C@H](N(C)C)C(O)=C(C(N)=O)C(=O)[C@@]3(O)C(O)=C1C2=O [Compound 1, 9-[(2,2-dimethyl-propylamino)-methyl]-minocycline]
- Treatment-emergent adverse events (TEAEs) reported [1]: 29%
- changes in vital signs, laboratory or ECG parameters [1]: no clinically significant changes
- discontinuations due to TEAEs [1]: no discontinuations due to TEAEs
- most common TEAE: headache [1]: 12%
- severe or serious TEAEs [1]: no severe or serious TEAEs
- tolerability of a single oral dose ([2]; 300 mg oral): well tolerated
- subjects with treatment emergent AEs ([2]; 32 subjects, nausea, somnolence, mild, unrelated to study drug): two
- median change from baseline in heart rate ([2]; all other treatment groups, all measured time points): ≤ 3 bpm
- serious AE (SAE) ([2]; single 300 mg oral dose): no subject experienced a serious AE
- treatment-related adverse events or clinically relevant changes in laboratory values or vital signs ([2]; single 300 mg oral dose): No treatment-related adverse events
- Difference (95% CI) in Overall Clinical Success rate at PTE, Compound 1 minus moxifloxacin ([3]; CE-PTE): 2.5% and 2.5 (−1.7, 6.8) %
- Overall clinical response at PTE: Clinical Failure ([3]; CE-PTE): 24 (7.1) n (%)
- Overall clinical response at PTE: Clinical Success ([3]; CE-PTE): 316 (92.9) n (%)
- Clinical Failure at PTE [3, 7]: 3 (6.8) n (%)
- Clinical Success at PTE [3, 7]: 41 (93.2) n (%)
- Difference (95% CI) in clinical success at PTE [3, 7]: 1.5 (−11.2, 13.9)^[4] %
- Clinical Failure at PTE [3, 8]: 14 (6.5) n (%)
- Clinical Success at PTE [3, 8]: 202 (93.5) n (%)
- Difference (95% CI) in clinical success at PTE [3, 8]: 2.5 (−2.7, 7.8)^[4] %
- Clinical Failure at PTE [3, 9]: 21 (7.1) n (%)
- Clinical Success at PTE [3, 9]: 275 (92.9) n (%)
- Difference (95% CI) in clinical success at PTE [3, 9]: 2.7 (−1.9, 7.3)^[4] %
- Clinical Failure at PTE [3, 10]: 7 (8.8) n (%)
- Clinical Success at PTE [3, 10]: 73 (91.3) n (%)
- Difference (95% CI) in clinical success at PTE [3, 10]: 3.0 (−6.8, 12.8)^[4] %
- Clinical Failure at PTE [3, 11]: 2 (4.4) n (%)
- Clinical Success at PTE [3, 11]: 43 (95.6) n (%)
- Difference (95% CI) in clinical success at PTE [3, 11]: 5.8 (−6.1, 18.1)^[4] %
- Clinical Failure at PTE [3, 12]: 13 (6.4) n (%)
- Clinical Success at PTE [3, 12]: 191 (93.6) n (%)
- Difference (95% CI) in clinical success at PTE [3, 12]: 1.5 (−3.6, 6.9)^[4] %
- Clinical Failure at PTE [3, 13]: 22 (7.5) n (%)
- Clinical Success at PTE [3, 13]: 273 (92.5) n (%)
- Difference (95% CI) in clinical success at PTE [3, 13]: 2.0% and 2.0 (−2.6, 6.6)^[4] %
- Clinical Failure at PTE [3, 14]: 9 (9.9) n (%)
- Clinical Success at PTE [3, 14]: 82 (90.1) n (%)
- Difference (95% CI) in clinical success at PTE [3, 14]: 2.9 (−6.7, 12.5)^[4] %
- Difference (95% CI) in Overall Clinical Success rate at PTE, Compound 1 minus moxifloxacin ([3]; ITT): 2.5% and 2.5 (−2.4, 7.4) %
- Overall clinical response at PTE: Clinical Failure ([3]; ITT): 32 (8.3) n (%)
- Overall clinical response at PTE: Clinical Failure or Indeterminate ([3]; ITT): 48 (12.4) n (%)
- Overall clinical response at PTE: Clinical Success ([3]; ITT): 338 (87.6) n (%)
- Overall clinical response at PTE: Indeterminate ([3]; ITT): 16 (4.1) n (%)
- Clinical Failure at PTE [3, 15]: 6 (10.7) n (%)
- Clinical Failure or Indeterminate at PTE [3, 15]: 11 (19.6) n (%)
- Clinical Success at PTE [3, 15]: 45 (80.4) n (%)
- Difference (95% CI) in clinical success at PTE [3, 15]: −3.6 (−18.2, 11.0)^[4] %
- Indeterminate at PTE [3, 15]: 5 (8.9) n (%)
- Clinical Failure at PTE [3, 16]: 17 (7.1) n (%)
- Clinical Failure or Indeterminate at PTE [3, 16]: 24 (10.0) n (%)
- Clinical Success at PTE [3, 16]: 217 (90.0) n (%)
- Difference (95% CI) in clinical success at PTE [3, 16]: 3.4 (−2.4, 9.4)^[4] %
- Indeterminate at PTE [3, 16]: 7 (2.9) n (%)
- Clinical Failure at PTE [3, 17]: 26 (7.9) n (%)
- Clinical Failure or Indeterminate at PTE [3, 17]: 37 (11.2) n (%)
- Clinical Success at PTE [3, 17]: 293 (88.8) n (%)
- Difference (95% CI) in clinical success at PTE [3, 17]: 3.5 (−1.6, 8.7)^[4] %
- Indeterminate at PTE [3, 17]: 11 (3.3) n (%)
- Clinical Failure at PTE [3, 18]: 9 (10.1) n (%)
- Clinical Failure or Indeterminate at PTE [3, 18]: 13 (14.6) n (%)
- Clinical Success at PTE [3, 18]: 76 (85.4) n (%)
- Difference (95% CI) in clinical success at PTE [3, 18]: 3.4 (−7.5, 14.0)^[4] %
- Indeterminate at PTE [3, 18]: 4 (4.5) n (%)
- Clinical Failure at PTE ([3]; ITT, actual PORT Risk Class II): 5 (8.8) n (%)
- Clinical Failure or Indeterminate at PTE ([3]; ITT, actual PORT Risk Class II): 10 (17.5) n (%)
- Clinical Success at PTE ([3]; ITT, actual PORT Risk Class II): 47 (82.5) n (%)
- Difference (95% CI) in clinical success at PTE ([3]; ITT, actual PORT Risk Class II): −1.5 (−15.7, 12.8)^[4] %
- Indeterminate at PTE ([3]; ITT, actual PORT Risk Class II): 5 (8.8) n (%)
- Clinical Failure at PTE [3, 19]: 16 (7.0) n (%)
- Clinical Failure or Indeterminate at PTE [3, 19]: 21 (9.3) n (%)
- Clinical Success at PTE [3, 19]: 206 (90.7) n (%)
- Difference (95% CI) in clinical success at PTE [3, 19]: 2.8 (−3.0, 8.7)^[4] %
- Indeterminate at PTE [3, 19]: 5 (2.2) n (%)
- Clinical Failure at PTE [3, 20]: 27 (8.2) n (%)
- Clinical Failure or Indeterminate at PTE [3, 20]: 38 (11.6) n (%)
- Clinical Success at PTE [3, 20]: 291 (88.4) n (%)
- Difference (95% CI) in clinical success at PTE [3, 20]: 3.3% and 3.3 (−1.9, 8.5)^[4] %
- Indeterminate at PTE [3, 20]: 11 (3.3) n (%)
- Clinical Failure at PTE ([3]; ITT, actual PORT Risk Class IV): 11 (10.8) n (%)
- Clinical Failure or Indeterminate at PTE ([3]; ITT, actual PORT Risk Class IV): 17 (16.7) n (%)
- Clinical Success at PTE ([3]; ITT, actual PORT Risk Class IV): 85 (83.3) n (%)
- Indeterminate at PTE ([3]; ITT, actual PORT Risk Class IV): 6 (5.9) n (%)
- Clinical Success n (%) [4]: 15 (83.3) n (%)
- Clinical Success n (%) [5]: 4 (100.0) n (%)
- Clinical Success n (%) [6]: 25 (89.3) n (%)
- Total number of deaths (ITT population): 8
- severity of gastrointestinal (GI) adverse events (vomiting, nausea, diarrhea, dyspepsia) (Phase 3 CABP): mild
- Subjects who died (Safety population): 8 (2.1) n (%)
- Subjects with at least one Adverse Event (AE) (Safety population): 170 (44.5) n (%)
- Subjects with at least one Drug-Related Serious TEAE (Safety population): 2 (0.5) n (%)
- Subjects with at least one Drug-Related TEAE (Safety population): 39 (10.2) n (%)
- Subjects with at least one Serious TEAE (Safety population): 23 (6.0) n (%)
- Subjects with at least one Serious TEAE Leading to Death (Safety population): 8 (2.1) n (%)
- Subjects with at least one Serious TEAE Leading to Premature Discontinuation of Test Article (Safety population): 10 (2.6) n (%)
- Subjects with at least one Severe TEAE (Safety population): 25 (6.5) n (%)
- Subjects with at least one TEAE (Safety population): 157 (41.1) n (%)
- Subjects with at least one TEAE Leading to Dose Interruption (Safety population): 0 n (%)
- Subjects with at least one TEAE Leading to Premature Discontinuation of Study (Safety population): 7 (1.8) n (%)
- Subjects with at least one TEAE Leading to Premature Discontinuation of Test Article (Safety population): 21 (5.5) n (%)
- TEAE leading to study drug discontinuation: Diarrhoea (Safety population): 0 n (%)
- TEAE leading to study drug discontinuation: Dyspepsia (Safety population): 0 n (%)
- TEAE leading to study drug discontinuation: Gastrointestinal Disorders (Safety population): 2 (0.5) n (%)
- TEAE leading to study drug discontinuation: Nausea (Safety population): 1 (0.3) n (%)
- TEAE leading to study drug discontinuation: Vomiting (Safety population): 2 (0.5) n (%)
- TEAE: Alanine Aminotransferase Increased (Safety population): 14 (3.7) n (%)
- TEAE: Aspartate Aminotransferase Increased (Safety population): 8 (2.1) n (%)
- TEAE: Clostridium Difficile Colitis (Safety population): 0 n (%)
- TEAE: Clostridium Difficile Infection (Safety population): 0 n (%)
- TEAE: Constipation (Safety population): 9 (2.4) n (%)
- TEAE: Diarrhoea (Safety population): 4 (1.0) n (%)
- TEAE: Dyspepsia (Safety population): 4 (1.0) n (%)
- TEAE: Gamma-Glutamyltransferase Increased (Safety population): 10 (2.6) n (%)
- TEAE: Headache (Safety population): 8 (2.1) n (%)
- TEAE: Hypertension (Safety population): 13 (3.4) n (%)
- TEAE: Insomnia (Safety population): 10 (2.6) n (%)
- TEAE: Nausea (Safety population): 9 (2.4) n (%)
- TEAE: Pseudomembranous Colitis (Safety population): 0 n (%)
- TEAE: Vomiting (Safety population): 10 (2.6) n (%)
- Total Number of AEs (Safety population): 434
- Total Number of TEAEs (Safety population): 376
